Laboratory results as given in the PolyMetriX glass transition set.
± gives the standard deviation of the reports.

| glass transition temperature [°C] | SMILES |
| --- | --- |
| 334.00 | *C(=O)Nc1cccc(NC(=O)c2ccc3c(c2)C(=O)N(c2ccc(-c4sc(-c5ccc(N6C(=O)c7ccc(*)cc7C6=O)cc5)c(-c5ccccc5)c4-c4ccccc4)cc2)C3=O)c1 (repeat unit) |
| 245.00 | *c1cccc(N2C(=O)c3ccc(Oc4c(C)cc(Cc5cc(C)c(Oc6ccc7c(c6)C(=O)N(*)C7=O)c(C)c5)cc4C)cc3C2=O)c1 (repeat unit) |
| 212.00 | *Oc1c(-c2ccccc2)cc(*)cc1-c1cccc(-c2ccccc2)c1-c1ccccc1 (repeat unit) |
| 31.00 | *CC(*)(C)C(=O)OCCCCCCCCCCCn1c2ccccc2c2ccccc21 (repeat unit) |
| 269.50 | *c1ccc(Oc2ccc(-n3c(=O)c4c(Oc5ccc(OCCCC)cc5)c5c(=O)n(*)c(=O)c5c(Oc5ccc(OCCCC)cc5)c4c3=O)cc2)cc1 (repeat unit) |
| 13.00 | *CC(*)c1ccccc1COCCCCCCCC (repeat unit) |
| -15.00 | *CCCCOC(=O)CCCCCNC(=O)CCCCC(=O)NCCCCCC(=O)O* (repeat unit) |
| 236.00 | *Oc1ccc(Oc2ccc(NC(=O)c3ccc(Oc4ccc(Oc5ccc(C(=O)Nc6ccc(*)cc6)cc5)cc4)cc3)cc2)cc1 (repeat unit) |
| 77.00 | *C(=O)OCCCCCCCOC(=O)c1ccc(N2C(=O)c3ccc(*)cc3C2=O)cc1 (repeat unit) |
| 305.00 | *Nc1ccc(-c2c(-c3ccc(-c4ccccc4)cc3)cc(-c3ccc(-c4cc(-c5ccc(-c6ccccc6)cc5)c(-c5ccc(NC(=O)c6ccc(C(*)=O)cc6)cc5)c(-c5ccc(-c6ccccc6)cc5)c4)cc3)cc2-c2ccc(-c3ccccc3)cc2)cc1 (repeat unit) |
| 122.00 | *c1ccc(-c2ccc3c(c2)C(CCCCCCBr)(CCCCCCBr)c2cc(*)ccc2-3)cc1 (repeat unit) |
| 283.00 | *c1cc(Br)c(Oc2c(Br)cc(N3C(=O)c4ccc(Oc5ccc6c(c5)C(=O)N(*)C6=O)cc4C3=O)cc2Br)c(Br)c1 (repeat unit) |
| 269.00 | *Oc1ccc(S(=O)(=O)c2ccc(-c3ccc(*)cc3)cc2)cc1 (repeat unit) |
| 247.00 | *c1cccc(N2C(=O)c3ccc(Oc4ccc(-c5ccc(Oc6ccc7c(c6)C(=O)N(*)C7=O)cc5)cc4)cc3C2=O)c1 (repeat unit) |
| 294.8 ± 1.1 | *C(=O)c1ccc2c(c1)C(=O)N(c1cc(N3C(=O)c4ccc(*)cc4C3=O)cc(C(F)(F)F)c1)C2=O (repeat unit) |
| 250.00 | *C(=O)Nc1ccc(-c2ccc(NC(=O)N3CC(C)N(*)CC3C)cc2)cc1 (repeat unit) |
| 405.00 | *c1ccc(C2(c3ccc(-c4cc(-c5ccccc5)c5cc(C6(c7ccc8nc(*)cc(-c9ccccc9)c8c7)c7ccccc7C(=O)c7ccccc76)ccc5n4)cc3)c3ccccc3-c3ccccc32)cc1 (repeat unit) |
| 198.00 | *Nc1ccccc1CCc1ccc(NC(*)=O)cc1 (repeat unit) |
| 242.00 | *C(=O)c1ccc2c(c1)C(=O)N(c1cccc(C(=O)c3cccc(N4C(=O)c5ccc(*)cc5C4=O)c3)c1)C2=O (repeat unit) |

| glass transition temperature [°C] | SMILES |
| --- | --- |
| -71.00 | *CCOCCOC(=O)CCCCCCCCCCC(=O)O* (repeat unit) |
| 251.00 | *Oc1cccc(NC(=O)c2cc(NC(=O)c3ccc(OC(C)=O)cc3)cc(C(=O)Nc3ccc(*)cc3)c2)c1 (repeat unit) |
| 117.00 | *Oc1ccc(OC(=O)c2ccc(C(*)=O)cc2Oc2ccc(-c3ccccc3)cc2)cc1 (repeat unit) |
| 165.00 | *Oc1ccc(-c2ccc(OC(=O)c3cc(/N=N/c4ccc(OCC)cc4)ccc3-c3ccc(/N=N/c4ccc(OCC)cc4)cc3C(*)=O)cc2)cc1 (repeat unit) |
| 259.00 | *c1ccc(Oc2ccc(-c3ccc(Oc4ccc(N5C(=O)c6cccc(Oc7c(C)cc(Cc8cc(C)c(Oc9cccc%10c9C(=O)N(*)C%10=O)c(C)c8)cc7C)c6C5=O)cc4)cc3)cc2)cc1 (repeat unit) |
| -60.50 | *CC(F)(F)C(F)(F)C(F)(F)COC(=O)CCCCC(=O)O* (repeat unit) |
| 102.00 | *CC(*)c1ccc(C(=O)N(CC)CC)cc1 (repeat unit) |
| 65.00 | *CCCCCCCCCCCCCCCCCCNC(=O)CCc1ccc(CCC(=O)N*)cc1 (repeat unit) |
| 130.00 | *Oc1ccc(OC(=O)c2ccc(C(*)=O)cc2Sc2ccccc2)cc1C (repeat unit) |
| 53.00 | */C=C(\C#N)C(=O)OCCCCCCOC(=O)/C(C#N)=C/c1ccc2c(c1)c1cc(*)ccc1n2CCCCCCCCCCCCCC (repeat unit) |
| 110.00 | *CC(*)C(=O)Oc1ccc(-c2ccccc2)cc1 (repeat unit) |
| 94.2 | *CC(O)CN(Cc1ccccc1)CC(O)COc1ccc(C(C)(C)c2ccc(O*)cc2)cc1 (repeat unit) |
| 150.80 | *NC1CC(C)(C)CC(C)(CNC(=O)CCCCC(*)=O)C1 (repeat unit) |
| 2.00 | */C=C/C(C)C(*)C(=O)OCCCCCCN(C)c1ccc(N(C)C)cc1 (repeat unit) |
| 100.00 | *CC(*)C(=O)OC1CC2CCC1(C)C2(C)C (repeat unit) |
| 253.00 | *c1c(F)c(F)c(-c2c(F)c(F)c(Oc3ccc(-c4nn(*)c(=O)c5ccccc45)c(F)c3)c(F)c2F)c(F)c1F (repeat unit) |
| 320.00 | *C(=O)Nc1ccc(Oc2ccc(C3(c4ccc(Oc5ccc(NC(=O)c6ccc7c(c6)C(=O)N(c6cccc(N8C(=O)c9ccc(*)cc9C8=O)c6)C7=O)cc5)cc4)NC(=O)c4ccccc43)cc2)cc1 (repeat unit) |
| 66.00 | *CC(COc1ccc(C(C)(C)c2ccc(O*)cc2)cc1)OC(=O)c1ccccc1Cl (repeat unit) |

| SMILES | glass transition temperature [°C] |
| --- | --- |
| *ON(C(F)(F)F)C(F)(F)C(*)(F)F (repeat unit) | -46.00 |
| *CC(*)(C)C(=O)OCCc1ccccc1 (repeat unit) [Poly(2-phenylethyl methacrylate)] | 37.42 ± 16 |
| *CCN(*)CC[Si](C)(C)C (repeat unit) | -64.80 |
| *c1ccc(Oc2ccc(P(=O)(c3ccccc3)c3ccc(Oc4ccc(-c5cc(*)[nH]n5)cc4)cc3)cc2)cc1 (repeat unit) | 296.00 |
| *O[SiH](*)C (repeat unit) | -3.39 |
| *CC(CSCCC)O* (repeat unit) | -61.00 |
| *Sc1c(C)cc(*)cc1C (repeat unit) | 198.00 |
| *CC(*)(C)C(=O)OCCO (repeat unit) [Poly(2-hydroxyethyl methacrylate)] | 84.03 ± 10 |
| *c1ccc(S(*)(=O)=O)cc1 (repeat unit) | 219.50 |
| *c1cccc(P(=O)(c2ccccc2)c2cccc(N3C(=O)c4ccc(NC(=O)OCCOc5c(Br)cc(C(C)(C)c6cc(Br)c(OCCOC(=O)Nc7ccc8c(c7)C(=O)N(*)C8=O)c(Br)c6)cc5Br)cc4C3=O)c2)c1 (repeat unit) | 201.00 |
| *C[Si](C)(C)[Si](C)(C)[Si](C)(C)[Si](*)(C)C (repeat unit) | -68.00 |
